Data set [1] has as its system HFD-fed mice (Male C57BL/6). Put plainly: longer-term obesity model in HFD-fed mice. The conditions noted are these: for blood glucose levels: Days 0, 1, 10 and 15, compared to the untreated mice, FIG. 8E; for liver histology: hepatocellular ballooning and steatosis: H&E, FIG. 8J; for plasma insulin levels on Day 1: between 15 and 120 minutes after treatment, one way ANOVA p<0.05, FIG. 8C left panel; for average daily food intake: compared to the untreated mice, FIG. 8D; for liver weight: livers of PBS control mice versus treated mice / subcutaneous white adipose tissue (sWAT) weight: day 19 necropsy; for liver weight: livers of PBS control mice versus treated mice: FIG. 8G; for subcutaneous white adipose tissue (sWAT) weight: versus PBS control, FIG. 8H; for tolerability: obesity model; for plasma insulin levels on Day 15: one way ANOVA p<0.0001, FIG. 8C right panel; for change in body weight: tail vein dosing Day 0, 4, 7, 10, 14, 18, FIG. 8A. From the text:
Briefly, mice (Male C57BL/6) were of approximately 13 weeks of age were housed 4 mice per cage. Following 2 weeks of acclimation, mice were introduced to 60% kcal HFD (Research Diets D12492). Cages were changed once, then changed once a week. Weekly body weights and non-fasted blood glucose were collected. […] The longer-term obesity model assesses a number of end points associated with obesity related type 2 diabetes (FIG. 6A).
Mice (Male C57BL/6) were of approximately 13 weeks of age were housed 4 mice per cage. Following 2 weeks of acclimatation, mice were introduced to 60% kcal HFD (Research Diets D12492). Cages were changed once, then changed once a week. Weekly body weights and non-fasted blood glucose were collected.
Mice were injected by tail vein with vehicle or the drugs on Day 0, Day 4, Day 7, Day 10, Day 14, and Day 18. Body weights were measured every 2 days. Change in body weight was calculated and plotted.
Cumulative food intake was measured between day 0 and 3, between day 4 and 7, between day 7 and day 11, and between day 11 and day 14, and represented as average daily food intake. For food consumption, remaining food was weighed on days 3, 8, and 15, and subtracted from the starting weight. This value was then normalized to the number of mice in the cage, and the number of days the mice had access to the food prior to weighing.
Blood glucose levels were measured on Days 0, 1, 10 and 15 and plotted.
On day 19 during terminal necropsy, liver and subcutaneous white adipose tissue were recovered weighed from treated animals.
To further analyze the changes in liver, histopathological analysis was conducted. Briefly, the liver tissue was stained with hematoxylin and eosin (H&E) and evaluated using standard techniques.

The next data set addresses T1, GIPR (Rattus norvegicus, UniProt P43219).
T1 construct: endogenous in cells; host or cells: rat INS-1 insulinoma cells (with cAMP-luciferase reporter / pGloSensor-22F biosensor)
T1 sequence (P43219 19-455): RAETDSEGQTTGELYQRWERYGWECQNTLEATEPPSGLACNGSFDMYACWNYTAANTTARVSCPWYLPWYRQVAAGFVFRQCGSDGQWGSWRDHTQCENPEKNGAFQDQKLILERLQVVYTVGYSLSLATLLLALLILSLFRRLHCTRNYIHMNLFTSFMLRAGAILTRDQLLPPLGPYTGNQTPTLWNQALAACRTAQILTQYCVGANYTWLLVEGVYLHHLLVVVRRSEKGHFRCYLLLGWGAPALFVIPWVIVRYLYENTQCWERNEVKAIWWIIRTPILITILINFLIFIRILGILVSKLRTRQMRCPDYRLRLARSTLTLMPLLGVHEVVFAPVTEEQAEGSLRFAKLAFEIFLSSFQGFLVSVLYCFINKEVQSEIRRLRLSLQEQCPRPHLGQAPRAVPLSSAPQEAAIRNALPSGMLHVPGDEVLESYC
Put plainly: pGloSensor-22F cAMP biosensor assay for GIPR agonism and antagonism in rat INS-1 cells. In kind it is cell-based. Details: dose or concentration left out as unconfirmed. The conditions noted are these: mixed with GIP(Ag). On the procedure:
A series of GIP antagonist peptides were evaluated at blocking human GIP (hGIP) agonism and the induction of cAMP. Briefly, rat INS-1 cells having pGloSensor-22F (Promega) were constructed and used to evaluate GIPR agonism and antagonism. […] The conformational change leads to the activation of the luciferase enzyme, thereby allowing detection of activation of GIPR, which produces cAMP upon activation.
To assay for GIPR agonism, rat INS-1 cells having pGloSensor-22F biosensor were treated with increasing concentrations of GIP(Ag). Immediately after the addition, the luminescence of the cells was measured, normalized using the basal luminescence and plotted.
GIPR antagonism was measured as the inhibition of GIP(Ag)-induced activation of the cAMP-luciferase reporter gene in rat INS-1 cells having pGloSensor-22F biosensor. The following GIP derivatives accessed in this assay for GIPR antagonism: GIP(Ant 3-30), GIP(Ant 3-30NH2), (GIP(Ant 3-30) having amidated carboxy terminus), GIP(AntPro3), GIP(AntPro3NH2), GIP(Ant3-30, Pro3) and GIP(Ant3-30, Pro3NH2). Briefly, rat INS-1 cells having pGloSensor-22F were treated with increasing doses of the above various GIP derivatives, mixed with […] GIP(Ag). Immediately after the addition, the luminescence of the cells was measured, normalized using the basal luminescence and plotted.
The GIP(Ag) was re-evaluated across a broader concentration range. Rat INS-1 cells having pGloSensor-22F biosensor were treated with increasing concentrations of GIP(Ag). Immediately after the addition, the luminescence of the cells was measured, normalized using the basal luminescence and plotted.
The GIP(AntPro3) and GIP(AntPro3NH2) were re-evaluated across a broader concentration range. Briefly, rat INS-1 cells having pGloSensor-22F were treated with increasing doses of GIP(AntPro3) and GIP(AntPro3NH2), mixed with […] GIP(Ag). Immediately after the addition, the luminescence of the cells was measured, normalized using the basal luminescence and plotted.

Data set [2] relates to HFD-fed mice (Male C57BL/6). Put plainly: glucose tolerance test (GTT) model in HFD-fed mice. In kind it is in vivo. As to the method: Cages were changed once, then changed once a week.
The mice administered the above treatment by i.v. injections. The mice were then fasted for 18 hours and administered a dose of 2 g/kg glucose by i.v. injections. Blood samples were drawn by tail clip bleeding at 15, 30 and 60 minutes post dosing and cardiac bleeding was used at 2 hours after glucose injection as end-point.

Setting [3] is: broader concentration range, FIG. 5B.

“Also recorded” adds a separate entry of the source. Where no end group is shown, it is not given here.

For dulaglutide [reference compound], in data set [1], the blood glucose levels result was “decrease in blood glucose”; the “liver histology: hepatocellular ballooning and steatosis” value was “a decrease in hepatocellular ballooning and steatosis”; the “plasma insulin levels on Day 1” value is listed as “rapid decrease in insulin levels”; the “average daily food intake” value is recorded as “decrease in food intake”. For the same substance, in data set [1], the “liver weight: livers of PBS control mice versus treated mice” value was “much heavier compared to the mice receiving treatments”; the “subcutaneous white adipose tissue (sWAT) weight” value was “decreased”; the tolerability entry is “well tolerated and no overt toxicities were noted”; the “plasma insulin levels on Day 15” value was “significant decrease in the levels of insulin”. Moreover, the “change in body weight” value in data set [1] is “progressive weight loss”. Besides, the “liver collagen staining (fibrosis)” value in data set [1] (picrosirius red, FIG. 8I) is listed as “a decrease in collagen staining”.

On to “GIP(AntPro3): GIP antagonist peptide, SEQ ID NO: 97 (YAPGTFISDYSIAMDKIHQQDFVNWLLAQKGKKNDWKHNITQ)”, for which the entries for the “inhibition of GIP(Ag)-induced activation of the cAMP-luciferase reporter gene (GIPR antagonism)” value in the data set with GIPR (setting [3]) and with GIPR (FIG. 5A) were “dose-dependent inhibition of GIP(Ag)-induced activation” and “more potent inhibition of GIP agonist signaling than the others tested; also recorded: maximal level of a dose-dependent inhibition of GIP(Ag)-induced activation”, respectively.

For “GLP-1-Fc-GIP(AntPro3): GLP-1 fused to GIP antagonist peptide (amino acids 1-42 having E3P mutation) via IgG1 hinge-CH2-CH3 Fc domain; SEQ ID NO: 95”, in data set [1], the blood glucose levels result was “decrease in blood glucose”; the “liver histology: hepatocellular ballooning and steatosis” value is “a decrease in hepatocellular ballooning and steatosis”; the “plasma insulin levels on Day 1” value is on record as “rapid decrease in insulin levels”; the “average daily food intake” value is given as “decrease in food intake”. In data set [1], the “liver weight: livers of PBS control mice versus treated mice” value was “much heavier compared to the mice receiving treatments”; the “subcutaneous white adipose tissue (sWAT) weight” value is on record as “decreased”; the tolerability entry is “well tolerated and no overt toxicities were noted”; the “plasma insulin levels on Day 15” value is given as “significant decrease in the levels of insulin”. Moreover, the “change in body weight” value in data set [1] is listed as “progressive weight loss”. In data set [1] (FIG. 8B), the “weights of individual mice” value was “induced weight loss”. In addition, in data set [1] (picrosirius red, FIG. 8I), the “decrease in liver collagen staining relative to tirzepatide or dulaglutide” value is on record as “greater decrease in collagen staining” and the “liver collagen staining (fibrosis)” value is “a decrease in collagen staining”. Moreover, the “serum insulin time course following glucose administration” value in data set [2] (FIG. 7C) is “rapid induction of insulin”. Besides, the “serum glucose time course following glucose administration” value in data set [2] (i.v. treatment, 18 hours fast, 2 g/kg glucose, versus PBS control (200 to about 800 mg/dl), FIG. 7A) is listed as “much smaller increase in serum glucose”. The glucose tolerance result in data set [2] (summary of GTT model) is “improved glucose tolerance”.

Take “GIP(AntPro3NH2): GIP antagonist peptide GIP(AntPro3), presumably having amidated carboxy terminus (YAPGTFISDYSIAMDKIHQQDFVNWLLAQKGKKNDWKHNITQ-NH2)”: the “inhibition of GIP(Ag)-induced activation of the cAMP-luciferase reporter gene (GIPR antagonism)” value is given as “dose-dependent inhibition of GIP(Ag)-induced activation” with GIPR (setting [3]) and “more potent inhibition of GIP agonist signaling than the others tested; also recorded: maximal level of a dose-dependent inhibition of GIP(Ag)-induced activation” with GIPR (FIG. 5A).
